Converted amounts (≈) assume the structure as drawn. Where a SMILES comes first, the peptide text is derived from it. Where no end group is shown, it is not given here. [ ]: non-standard residue; d: D form. Nva = CCC[C@H](N)C(=O)O
Assays:
AdipoR1-Δ88 = target: T1, AdipoR1-Δ88 (Homo sapiens, UniProt Q96A54); assay: Surface plasmon resonance binding to immobilized AdipoR1-Δ88; settings: for SPR screening of designed peptides, selection: Biacore T-200, selected versus ADP355 by concentration-dependent signal increase, dissociation rate and estimated Kd, 25 candidate peptides
T1 construct: made in house; host or cells: Sf9 insect cells (Bac-to-Bac baculovirus)
T1 sequence (Q96A54 89-375 limits assumed): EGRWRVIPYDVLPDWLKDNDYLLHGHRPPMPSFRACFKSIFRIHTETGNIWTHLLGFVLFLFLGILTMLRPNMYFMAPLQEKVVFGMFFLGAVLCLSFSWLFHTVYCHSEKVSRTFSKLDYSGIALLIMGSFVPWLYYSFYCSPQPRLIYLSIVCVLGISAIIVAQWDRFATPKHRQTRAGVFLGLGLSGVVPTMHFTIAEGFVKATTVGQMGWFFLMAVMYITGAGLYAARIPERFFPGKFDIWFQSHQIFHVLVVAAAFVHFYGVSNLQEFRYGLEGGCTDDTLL
Protocol: DNA gene fragment encoding AdipoR1 fused to an N-terminal flag tag was synthesized after codon optimization for insect cell expression (Integrated DNA Technologies). Full length AdipoR1 and AdipoR1-Δ88 were expressed in SF9 cell line using Bac-to-Bac Baculovirus system and purified following the procedure described by T. Tanabe et. al.. Briefly, 1 L SF9 cells infected with amplified baculovirus were cultured in SF-900 III SFM media (Thermo Fisher Scientific) for 3 days at 27°C. Harvested cells were disrupted by dounce homogenization, followed by centrifugation at 30,000 rpm for 2 hours. Collected raw membrane were washed with HEPES buffer and stored in -80°C after flash-freezing. Membranes were solubilized with 1% DDM (Anatrace) and recombinant AdipoR1-Δ88 was purified by using anti-flag tag antibody magnetic beads (Sigma). Eluted AdipoR1-Δ88 by flag peptide (Sigma) was further purified in 20 mM HEPES (pH7.4), 150 mM NaCl, 10% glycerol, 0.025% DDM, and 0.0001% CHS by Superdex 200 (GE Healthcare). The amount of purified AdipoR1-Δ88 was estimated by using Bradford staining.
In order to screen peptide library against AdipoR1, purified AdipoR1-Δ88 was immobilized onto S-series CM5 chip (GE Healthcare Life Science). Since AdipoR1-Δ88 was solubilized with a detergent-containing buffer solution, pH scouting solutions with various pH from 3.5 to 5.5 were prepared with the same detergent solution, 0.025% DDM and 0.0001% cholesteryl-hemi-succinate (CHS, Anatrace). At pH 5, AdipoR1-Δ88 was immobilized at around 4000 response unit using amine coupling method though EDC/NHS. After enough stabilization with running buffer consisting of 20 mM HEPES (pH7.4), 150 mM NaCl, 10% glycerol, 0.025% DDM, and 0.0001% CHS, serial concentrations from 1 to 100 μM were injected into reference and sample cells with 60-second contact time, 200-second dissociation time, and 30 μl/min flow rate at 4°C. The resulting sensorgrams were double-blanked by reference cell and buffer injection.

AdipoRs = settings: previous studies; cited from earlier work
[1] = tested on: AdipoR1-mediated AMPK activation (pAMPK Thr172) in differentiated C2C12 myotubes; assay: AMPK activation in differentiated C2C12 myotubes (Western blot); assay type: cell-based, Mouse; settings: differentiated C2C12 myotubes, 0.8, 4 and 20 μM, in words
Protocol: (§1) Mouse C2C12 myoblasts (American Type Culture Collection) were maintained in Dulbecco’s modified Eagle’s medium (DMEM) supplemented with 10% FBS. C2C12 myotube was obtained by culturing myoblasts in DMEM containing 2% horse serum for at least 5 days with daily media change. On the fifth day, differentiation of cells could be confirmed by multinucleated contracted myotubes. C2C12 myotubes were then treated with selected peptide candidates at indicated concentrations for 30 minutes. As a positive control, 2 μg/ml recombinant human globular adiponectin and indicated concentrations of ADP355 were used.
(§2) Cell lysates were subjected to SDS-PAGE and western blot analysis. Briefly, cells were lysed with protein lysis buffer (RIPA, Thermo) followed by heat denaturation. Five micrograms of whole cell proteins were applied to SDS-PAGE. After electrophoresis, the proteins were transferred onto PVDF membrane, followed by membrane blocking in TBS-T buffer containing 5% non-fat dry milk for 1 hour at room temperature. The membrane was probed with the following different primary antibodies: anti-phosphorylated-AMPK (Thr172) (Cell Signaling), anti-tAMPK (Cell Signaling), anti-pACC, and anti-GAPDH (Santa-Cruz). […] Signals from Western blot were quantified by using Image Lab Software 6.0 (Bio-Rad).

Solubility of peptides = assay type: physicochemical
[2] = tested on: acetyl Co-A carboxylase (ACC) phosphorylation in differentiated C2C12 myotubes; assay: ACC phosphorylation in differentiated C2C12 myotubes (Western blot); assay type: cell-based, Mouse; settings: PEGylated BHD1028, Western blot, in words
Protocol: as §1, §2

[3] = target: T2, AdipoR1-Δ88 (adiponectin receptor 1 lacking the N-terminal 88 residues) (human, UniProt Q96A54 89-375); assay: SPR; AdipoR1-Δ88 immobilised on CM5 chip by amine coupling at pH 5 (around 4000 RU); peptides 1 to 100 μM injected, 60 s contact, 200 s dissociation, 30 μl/min, 4°C; 20 mM HEPES pH 7.4, 150 mM NaCl, 10% glycerol, 0.025% DDM, 0.0001% CHS; Kd from saturation curves of responses at equilibrium; settings: both partners purified
T2 construct: Adiponectin receptor 1 (AdipoR1), human; N-terminal 88 residues deleted; gene synthesised, codon-optimised for insect cells; Kept in 0.025% DDM and 0.0001% CHS; The functional rows were done on mouse C2C12 or human HepG2 cells with their own AdipoR1; m1 stands there for AdipoR1; also called AdipR1-Δ88; source: SF9 cells (Bac-to-Bac baculovirus), solubilised with 1% DDM, purified (anti-flag …)
T2 sequence (looked up): T1 sequence (Q96A54 89-375 limits assumed)

**Q.** With `CCC[C@H](NC(=O)[C@@H]1CCCN1C(=O)[C@@H](NC(=O)[C@H](N)CC(N)=O)[C@@H](C)CC)C(=O)N[C@@H](CC(C)C)C(=O)N[C@@H](Cc1ccc(O)cc1)C(=O)N[C@H](CO)C(=O)N[C@@H](Cc1ccccc1)C(=O)N[C@@H](C)C(=O)N[C@H](CO)C(N)=O` [ADP355, reference compound] (H-[dN]IP[Nva]LY[dS]FA[dS]-NH2) as the molecule, how does the Kd (AdipoR1-Δ88; SPR, AdipoR1-Δ88 amine-coupled on CM5 chip, 1 to 100 μM peptide, 4°C, 20 mM HEPES pH7.4, 0.025% DDM, 0.0001% CHS, from saturation curves with responses at equilibrium state) read?
**A.** Its Kd is > 100 µM.

**Q.** And the SPR response (AdipoR1-Δ88; SPR, AdipoR1-Δ88 on CM5 chip, serial concentrations 1 to 100 μM, in words)?
**A.** Its SPR response is “very weak SPR responses except 100 μM concentration”.

**Q.** And the cellular efficacy (AdipoRs)?
**A.** The cellular efficacy was “nano molar concentration”.

**Q.** For `CC[C@H](C)[C@H](NC(=O)[C@H](CC(N)=O)NC(=O)[C@@H]1CCCN1C(=O)[C@H](Cc1c[nH]cn1)NC(=O)[C@H](Cc1ccc(O)cc1)NC(=O)[C@H](C)NC(=O)[C@H](Cc1ccccc1)NC(=O)[C@H](Cc1ccc(O)cc1)NC(=O)[C@@H](N)Cc1c[nH]c2ccccc12)C(=O)N1CCC[C@H]1C(=O)NCC(=O)N[C@@H](CC(C)C)C(=O)N[C@@H](Cc1c[nH]c2ccccc12)C(=O)N[C@@H](Cc1ccc(O)cc1)C(=O)N[C@@H](Cc1ccccc1)C(=O)O` [BHD43] (H-WYFAYHPNIPGLWYF-OH), which “SPR screening of designed peptides, selection” value (shortened to “SPR screening … selection”) (AdipoR1-Δ88) is on record?
**A.** Its value is “preliminarily selected”.

**Q.** And the AMPK activation [1]?
**A.** Its AMPK activation is “activated AMPK in a concentration-dependent manner”.

**Q.** For `CC[C@H](C)[C@H](NC(=O)[C@H](CC(N)=O)NC(=O)[C@@H]1CCCN1C(=O)[C@H](Cc1c[nH]cn1)NC(=O)[C@H](Cc1ccc(O)cc1)NC(=O)[C@H](C)NC(=O)[C@H](Cc1ccccc1)NC(=O)[C@H](Cc1ccc(O)cc1)NC(=O)[C@@H](N)Cc1ccccc1)C(=O)N1CCC[C@H]1C(=O)NCC(=O)N[C@@H](CC(C)C)C(=O)N[C@@H](Cc1ccccc1)C(=O)N[C@@H](Cc1ccc(O)cc1)C(=O)N[C@@H](Cc1ccccc1)C(=O)O` [BHD44] (H-FYFAYHPNIPGLFYF-OH), which “SPR screening … selection” value (AdipoR1-Δ88) is on record?
**A.** Its value is “preliminarily selected”.

**Q.** And the AMPK activation [1]?
**A.** Its AMPK activation is “activated AMPK in a concentration-dependent manner”.

**Q.** With `CC[C@H](C)[C@H](NC(=O)[C@H](CC(N)=O)NC(=O)[C@@H]1CCCN1C(=O)[C@H](Cc1c[nH]cn1)NC(=O)[C@H](Cc1ccc(O)cc1)NC(=O)[C@H](C)NC(=O)[C@H](Cc1ccccc1)NC(=O)[C@H](Cc1ccc(O)cc1)NC(=O)[C@@H](N)Cc1ccc(O)cc1)C(=O)N1CCC[C@H]1C(=O)NCC(=O)N[C@@H](CC(C)C)C(=O)N[C@@H](Cc1ccc(O)cc1)C(=O)N[C@@H](Cc1ccc(O)cc1)C(=O)N[C@@H](Cc1ccccc1)C(=O)O` [BHD1028] (H-YYFAYHPNIPGLYYF-OH) as the molecule, how does the “SPR screening … selection” value (AdipoR1-Δ88) read?
**A.** Its value is “preliminarily selected”.

**Q.** What about the “dissociation in the SPR sensorgram” value (AdipoR1-Δ88; among screened peptides, in words) of the same molecule?
**A.** The value was “slowest dissociation”.

**Q.** What about the “solubility in DMSO” value (Solubility of peptides; DMSO) of the same molecule?
**A.** Its value is 100 mM (≈ 193 mg/mL).

**Q.** What about the solubility (Solubility of peptides; aqueous buffer, PBS buffer pH 7.4, unmodified peptide) of the same molecule?
**A.** The solubility was ≤ 50 µM.

**Q.** With “PEGylated BHD1028: BHD1028 N-terminally mono-PEGylated with 5000 Da polyethylene glycol ({PEG 5000 Da}-YYFAYHPNIPGLYYF)” as the molecule, how does the “ACC activation, concentration dependence” value [2] read?
**A.** The value was “concentration dependent”.

**Q.** And the “solubility after PEGylation” value (Solubility of peptides; modified with 5000 Da of PEG, in words)?
**A.** The value was “much enhanced solubility”.

B1: BHD43 (peptide)
peptide: WYFAYHPNIPGLWYF
notes: designed 15-mer, adiponectin-mimetic; free N- and C-termini as printed (NH2-...-COOH); source: synthetic peptide (AnyGen Ltd.)
**Q.** Which Kd [3] does the source give for B1 here?
**A.** The Kd was 10 µM.

B2: BHD1028 (peptide)
peptide: YYFAYHPNIPGLYYF
notes: designed 15-mer, adiponectin-mimetic; free N- and C-termini as printed (NH2-...-COOH); also called BHD31; source: synthetic peptide (AnyGen Ltd.)
**Q.** Which Kd [3] does the source give for B2 here?
**A.** The Kd was 16 µM.

B3: BHD44 (peptide)
peptide: FYFAYHPNIPGLFYF
notes: as for B1
**Q.** Which Kd [3] does the source give for B3 here?
**A.** The Kd was 4.3 µM.

Reference: paper PMC6005460, “Discovery of a novel potent peptide agonist to adiponectin receptor 1” (PLoS ONE, 2018)
